Results taken from PubChem BioAssay (NCI).
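Grown in 96-well plates, cells were treated for 48 hours with each compound at five concentrations. Insufficient inhibition: endpoint recorded as highest concentration tested. TGI is the concentration that stops growth completely.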

System: SN12K1 renal
Test: NCI anticancer screen, dose series, 48 h

Q: How did the TGI turn out when C[C@H](N)C(=O)N[C@@H]1[C@H]2C(=C(O)C[C@@H](O)[C@@H]2O)C(=O)O[C@]1(C)C(Cl)Cl was run?
A: 1580 nM
